Among the data in patent publication US11559538B2, “Substituted 1,2-oxaborolan-2-ols as PDE4 inhibitors” (Pfizer Inc., priority 2018, dated 2023) are IC50 values, retold here.

A word on the IC50: it is the concentration that inhibits the measured activity by half.

One test deals with IFNγ. As to the kind of experiment: Cytokine assay: IFNγ release from PHA-L stimulated human PBMCs. It is filed as cell-based. The settings on record: Homo sapiens, PBMC. In outline:
(§1)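 Thawed human PBMCs (about 250,000 per well) preincubated with compound (about 10 μM down by 4-fold dilution, 0.25% DMSO), then stimulated with 3.5 μg/mL PHA-L for 48 h at 37 °C. IL-4, IL-13 and IFNγ in supernatant measured by HTRF; IC50 from four-parameter logistic fit.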

In a further test the test system is IL-13. The experiment in a line: Cytokine assay: IL-13 release from PHA-L stimulated human PBMCs. The class given is cell-based. The following applies: Homo sapiens, PBMC, read-out: IL13 IC50. In outline: as §1
The test system of another test is IL-4. The experiment in a line: Cytokine assay: IL-4 release from PHA-L stimulated human PBMCs. The following applies: Homo sapiens, PBMC, read-out: IL4 IC50. It is filed as cell-based. In outline:
as §1

Test [1] deals with PDE4B (aa 152-484, Uniprot ID Q07343) (Homo sapiens (Human), UniProt Q07343). The experiment in a line: PDE4 SPA assay (scintillation proximity assay). It is filed as biochemical. The following applies: read-out: PDE4B2 IC50. In outline: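 PDE4B (aa 152-484, ~81.6 pM) preincubated ~10 min with compound, then 1 μM ³H/unlabeled cAMP added in Tris pH 7.5, 1.3 mM MgCl2, 0.004% Brij 35, ~2% DMSO; 30 min at RT. Product captured on SPA beads and counted; IC50 by four-parameter logistic fit.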
In general terms: Scintillation proximity formats need no separation of bound from free tracer.

Sequence of PDE4B (aa 152-484, Uniprot ID Q07343) (Q07343 324-656): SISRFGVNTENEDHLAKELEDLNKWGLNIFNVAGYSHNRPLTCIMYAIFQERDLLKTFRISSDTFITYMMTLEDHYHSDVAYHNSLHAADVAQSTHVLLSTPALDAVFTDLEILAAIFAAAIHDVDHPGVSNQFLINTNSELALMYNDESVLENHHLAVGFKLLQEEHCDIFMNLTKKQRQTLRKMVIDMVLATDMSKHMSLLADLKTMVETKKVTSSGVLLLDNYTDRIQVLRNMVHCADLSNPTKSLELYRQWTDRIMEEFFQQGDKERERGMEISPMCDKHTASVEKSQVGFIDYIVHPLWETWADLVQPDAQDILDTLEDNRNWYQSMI

As for `CCCOc1cc(-c2cc(C)cc(C3COB(O)C3)n2)ccc1OC` (stereo not shown) [Example 158, 4-(6-(4-methoxy-3-propoxyphenyl)-4-methylpyridin-2-yl)-1,2-oxaborolan-2-ol], the IC50 in the test with IFNγ was found to be 10.2 nM; with IL-13 it was 929 nM; in the test with IL-4, 59.1 nM; in test [1] it was 12 nM.

`COc1ccc(-c2nc(C3COB(O)C3)cs2)cc1OC` (stereo not shown) [Example 159, 4-(2-(3,4-dimethoxyphenyl)thiazol-4-yl)-1,2-oxaborolan-2-ol]: the IC50 worked out at 25.1 nM in the test with IFNγ, 931 nM with IL-13, 468 nM in the test with IL-4 and 15.1 nM in test [1].

As to `COc1cc(-c2cccc(C3COB(O)C3)c2)cnc1OC` (stereo not shown) [Example 161, 4-(3-(5,6-dimethoxypyridin-3-yl)phenyl)-1,2-oxaborolan-2-ol], the IC50 with IFNγ amounted to 38.6 nM; in the test on IL-13, 960 nM; in the test with IL-4, 419 nM; in test [1], 11.3 nM.

Consider `COc1ccc(-c2cccc(C3COB(O)C3)n2)c(F)c1OC` (stereo not shown) [Example 162, 4-(6-(2-fluoro-3,4-dimethoxyphenyl)pyridin-2-yl)-1,2-oxaborolan-2-ol], for which the concentration for half-maximal inhibition (IC50) worked out at 8.29 nM in the test on IFNγ, 975 nM with IL-13, 56.3 nM with IL-4 and 14.5 nM in test [1].

For `CCOc1c(OC)cc(F)c(-c2cncc(C3COB(O)C3)c2)c1F` (stereo not shown) [Example 163, 4-(5-(3-ethoxy-2,6-difluoro-4-methoxyphenyl)pyridin-3-yl)-1,2-oxaborolan-2-ol], the IC50 came to 14.2 nM with IFNγ, 2510 nM with IL-13, 31.1 nM with IL-4 and 3.71 nM in test [1].

Turning to `COc1ccc(-c2cccc(C3COB(O)C3)c2)cc1OCC1CC1` (stereo not shown) [Example 165, 4-(3′-(cyclopropylmethoxy)-4′-methoxy-[1,1′-biphenyl]-3-yl)-1,2-oxaborolan-2-ol], the IC50 turned out to be 3.25 nM with IFNγ, 990 nM in the test with IL-13, 128 nM in the test on IL-4 and 2.11 nM in test [1].

As to `CCOc1c(OC)ccc(-c2cccc(C3COB(O)C3)c2)c1F` (stereo not shown) [Example 166, 4-(3′-ethoxy-2′-fluoro-4′-methoxy-[1,1′-biphenyl]-3-yl)-1,2-oxaborolan-2-ol], the IC50 came to 5.46 nM with IFNγ, 1010 nM with IL-13, 49.2 nM in the test on IL-4 and 0.97 nM in test [1].

In the case of `CCCOc1c(OC)ccc(-c2cncc(C3COB(O)C3)c2)c1OC` (stereo not shown) [Example 167, 4-(5-(2,4-dimethoxy-3-propoxphenyl)pyridin-3-yl)-1,2-oxaborolan-2-ol], the IC50 in the test on IFNγ worked out at 1.13 nM; in the test with IL-13 it was 2790 nM; in the test with IL-4 it was 1.37 nM; in test [1] it was 1.98 nM.

For the molecule `COc1ccc(-c2cncc(C3COB(O)C3)c2)cc1OC1CCSCC1` (stereo not shown) [Example 169, 4-(5-(4-methoxy-3-((tetrahydro-2H-thiopyran-4-yl)oxy)phenyl)pyridin-3-yl)-1,2-oxaborolan-2-ol], the IC50 in the test on IFNγ amounted to 5.84 nM; in the test with IL-13 it was 2020 nM; with IL-4, 33 nM; in test [1] it was 2.85 nM.

Turning to `CCOc1cc(-c2cc(C3COB(O)C3)cnc2CC)ccc1OC` (stereo not shown) [Example 171, 4-(5-(3-ethoxy-4-methoxyphenyl)-6-ethylpyridin-3-yl)-1,2-oxaborolan-2-ol], the IC50 with IFNγ came to 3.22 nM; in the test on IL-13, 1350 nM; in the test on IL-4, 2.43 nM; in test [1], 1.73 nM.

As to `CCOc1cc(-c2cccc(C3COB(O)C3)c2)ccc1SC` (stereo not shown) [Example 172, 4-(3′-ethoxy-4′-(methylthio)-[1,1′-biphenyl]-3-yl)-1,2-oxaborolan-2-ol], the IC50 in the test with IFNγ came to 27.5 nM; in the test on IL-13, 1110 nM; in the test on IL-4, 269 nM; in test [1], 1.76 nM.

Turning to `COc1cnc(-c2cccc(C3COB(O)C3)c2)cc1OC` (stereo not shown) [Example 174, 4-(3-(4,5-dimethoxypyridin-2-yl)phenyl)-1,2-oxaborolan-2-ol], the IC50 came out at 14.4 nM in the test on IFNγ, 1140 nM with IL-13, 279 nM in the test on IL-4 and 8.57 nM in test [1].

For the molecule `COc1cc(-c2ccc(OC)c(OC3CCCC3)c2)nc(C2COB(O)C2)n1` (stereo not shown) [Example 175, 4-(4-(3-(cyclopentyloxy)-4-methoxyphenyl)-6-methoxypyrimidin-2-yl)-1,2-oxaborolan-2-ol], the IC50 in the test on IFNγ was determined as 4.35 nM; in the test on IL-13, 2310 nM; in the test on IL-4 it was 14.3 nM; in test [1], 5.03 nM.

In the case of `CCCOc1cc(-c2cncc(C3COB(O)C3)c2)ncc1OC` (stereo not shown) [Example 178], the IC50 with IFNγ was determined as 0.91 nM; in the test on IL-13, 1280 nM; with IL-4, 1.81 nM; in test [1], 2.02 nM.

For the molecule `CCOc1ccc(-c2cccc(C3COB(O)C3)c2)cc1OC` (stereo not shown) [Example 182, 4-(4′-ethoxy-3′-methoxy-[1,1′-biphenyl]-3-yl)-1,2-oxaborolan-2-ol], the IC50 in the test with IFNγ was 19.6 nM; with IL-13 it was 1330 nM; in the test with IL-4, 245 nM; in test [1], 5.14 nM.

With `COc1ccc(-c2cccc(C3COB(O)C3)c2)cc1OC1CCC1` (stereo not shown) [Example 184, 4-(3′-cyclobutoxy-4′-methoxy-[1,1′-biphenyl]-3-yl)-1,2-oxaborolan-2-ol], the IC50 was 4.48 nM in the test on IFNγ, 1400 nM in the test on IL-13, 79.2 nM with IL-4 and 0.8 nM in test [1].

Turning to `CCOc1cc(-c2nc(OC)cc(C3COB(O)C3)n2)ccc1OC` (stereo not shown) [Example 185, 4-(2-(3-ethoxy-4-methoxyphenyl)-6-methoxypyrimidin-4-yl)-1,2-oxaborolan-2-ol], the IC50 in the test on IFNγ was found to be 1.3 nM; with IL-13, 2980 nM; in the test with IL-4, 5.75 nM; in test [1] it was 3.38 nM.

Take `CCOc1ccc(-c2cncc(C3COB(O)C3)c2)cc1OC` (stereo not shown) [Example 187, 4-(5-(4-ethoxy-3-methoxyphenyl)pyridin-3-yl)-1,2-oxaborolan-2-ol]: the IC50 was 8.84 nM in the test on IFNγ, 1420 nM in the test with IL-13, 41.1 nM with IL-4 and 4.28 nM in test [1].

With `CCOc1c(OC)ccc(-c2cccc(C3COB(O)C3)c2)c1C#N` (stereo not shown) [Example 191, 3-ethoxy-3′-(2-hydroxy-1,2-oxaborolan-4-yl)-4-methoxy-[1,1′-biphenyl]-2-carbonitrile], the IC50 with IFNγ is 4.42 nM; with IL-13, 1500 nM; in the test with IL-4, 176 nM; in test [1], 3.84 nM.

On to `CCCOc1cc(-c2cc(CO)nc(C3COB(O)C3)n2)ccc1OC` (stereo not shown) [Example 198, 4-(4-(hydroxymethyl)-6-(4-methoxy-3-propoxyphenyl)pyrimidin-2-yl)-1,2-oxaborolan-2-ol], for which the IC50 in the test with IFNγ was 4.85 nM; in the test with IL-13 it was 1580 nM; with IL-4, 14.2 nM; in test [1] it was 14.3 nM.

On to `CCOc1c(OC)ccc(-c2cccc(C3COB(O)C3)n2)c1F` (stereo not shown) [Example 199, 4-(6-(3-ethoxy-2-fluoro-4-methoxyphenyl)pyridin-2-yl)-1,2-oxaborolan-2-ol], for which the IC50 came out at 4.55 nM with IFNγ, 1590 nM in the test with IL-13, 90.4 nM in the test on IL-4 and 10.4 nM in test [1].

Take `CCCOc1cc(-n2ccc(C3COB(O)C3)n2)ccc1OC` (stereo not shown) [Example 200, 4-(1-(4-methoxy-3-propoxyphenyl)-1H-pyrazol-3-yl)-1,2-oxaborolan-2-ol]: the IC50 in the test with IFNγ was found to be 14.1 nM; with IL-13, 1600 nM; in the test with IL-4, 128 nM; in test [1], 12.9 nM.

As to `COc1cc(-c2cncc(C3COB(O)C3)c2)ccc1SC` (stereo not shown) [Example 201, 4-(5-(3-methoxy-4-(methylthio)phenyl)pyridin-3-yl)-1,2-oxaborolan-2-ol], the IC50 with IFNγ was 9.51 nM; in the test with IL-13, 1660 nM; with IL-4 it was 105 nM; in test [1], 2.13 nM.

`CCCOc1cc(-c2cc(C3COB(O)C3)cc(CO)n2)ccc1OC` (stereo not shown) [Example 202, 4-(2-(hydroxymethyl)-6-(4-methoxy-3-propoxyphenyl)pyridin-4-yl)-1,2-oxaborolan-2-ol]: the IC50 in the test with IFNγ amounted to 8.51 nM; in the test with IL-13, 1670 nM; in the test with IL-4, 5.2 nM; in test [1], 4.29 nM.

As to `CCOc1cc(-c2cccc(C3COB(O)C3)n2)ccc1SC` (stereo not shown) [Example 203, 4-(6-(3-ethoxy-4-(methylthio)phenyl)pyridin-2-yl)-1,2-oxaborolan-2-ol], the IC50 amounted to 114 nM in the test with IFNγ, 2180 nM in the test with IL-13, 176 nM with IL-4 and 15 nM in test [1].

On to `COc1cc(-c2cccc(C3COB(O)C3)c2)ccc1SC` (stereo not shown) [Example 206, 4-(3′-methoxy-4′-(methylthio)-[1,1′-biphenyl]-3-yl)-1,2-oxaborolan-2-ol], for which the IC50 amounted to 27.8 nM with IFNγ, 1790 nM with IL-13, 113 nM in the test with IL-4 and 2.65 nM in test [1].

`COc1ccc(-c2cc(C)cc(C3COB(O)C3)c2)cc1OC` (stereo not shown) [Example 207, 4-(3′,4′-dimethoxy-5-methyl-[1,1′-biphenyl]-3-yl)-1,2-oxaborolan-2-ol]: the IC50 in the test on IFNγ came to 53.5 nM; in the test on IL-13 it was 1800 nM; in the test with IL-4 it was 390 nM; in test [1], 10.3 nM.

`COc1ccc(-c2cc(C3COB(O)C3)ccn2)cc1OC1CCCC1` (stereo not shown) [Example 210, 4-(2-(3-(cyclopentyloxy)-4-methoxyphenyl)pyridin-4-yl)-1,2-oxaborolan-2-ol]: the half-maximal inhibitory concentration (IC50) was 2.4 nM in the test on IFNγ, 2390 nM in the test with IL-13, 17.6 nM in the test on IL-4 and 1.92 nM in test [1].
